According to ChEMBL document CHEMBL1147969, “Synthesis of some novel heterocyclic compounds derived from diflunisal hydrazide as potential anti-infective and anti-inflammatory agents” (2007):
The source made the active and inactive calls. No cut-off for these calls is given here.

Tested on: Vaccinia virus
Experiment: Antiviral activity against Vaccinia virus-induced cytopathogenicity at 16 ug/mL
Type: functional, organism-based
Details: Orthopoxvirus vaccinia

Q: With `Cc1ccc(-n2c(-c3cc(-c4ccc(F)cc4F)ccc3O)n[nH]c2=S)cc1` as the compound, how does the Activity read?
A: Its Activity is “Active”.
